Legend:
Recombinant mTOR (FRAP1) = target: T1, Recombinant mTOR (FRAP1) (Homo sapiens, UniProt P42345); assay: mTOR in vitro kinase assay (TR-FRET, phosphorylation of GFP-4E-BP1); format: biochemical; settings: for IC50: 8 μM ATP, 400 nM GFP-4E-BP1; for inhibition at 1 µM: 1 uM compound, read-out: mTOR % Inhib@1 uM
T1 construct: purchased Invitrogen
How it was run: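 Recombinant human mTOR with GFP-4E-BP1 substrate at 400 nM and 8 μM ATP, 1 h at room temperature, then quenched with 10 mM EDTA plus 2 nM Tb-anti-p4E-BP1 (pThr46) for 1 h. TR-FRET 520/486 nm ratio fitted against inhibitor concentration by four-parameter sigmoidal regression.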

[1] = target: T2, PI3 Kinase alpha (p110 alpha/p85 alpha) (Homo sapiens, UniProt P42336); assay: PI3K TR-FRET assay (Transcreener ADP2); format: biochemical; settings: for inhibition at 1 µM: 1 uM compound, read-out: PI3K % Inhib@1 uM; for IC50: PI3K alpha, 1 μM ATP, 50 μM PIP2
T2 construct: purchased Invitrogen
How it was run: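 p110α/p85α with diC8 PIP2 (50 μM) and 1 μM ATP in 50 mM HEPES pH 7.4, MgCl2, CHAPS, DTT, EGTA; 1 h at room temperature. ADP detected by Transcreener ADP2 TR-FRET (665/615 nm ratio), converted to product via ADP-ATP standard curve; IC50 from four-parameter fit of % inhibition.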

T1 sequence (P42345 1360-2549 limits assumed): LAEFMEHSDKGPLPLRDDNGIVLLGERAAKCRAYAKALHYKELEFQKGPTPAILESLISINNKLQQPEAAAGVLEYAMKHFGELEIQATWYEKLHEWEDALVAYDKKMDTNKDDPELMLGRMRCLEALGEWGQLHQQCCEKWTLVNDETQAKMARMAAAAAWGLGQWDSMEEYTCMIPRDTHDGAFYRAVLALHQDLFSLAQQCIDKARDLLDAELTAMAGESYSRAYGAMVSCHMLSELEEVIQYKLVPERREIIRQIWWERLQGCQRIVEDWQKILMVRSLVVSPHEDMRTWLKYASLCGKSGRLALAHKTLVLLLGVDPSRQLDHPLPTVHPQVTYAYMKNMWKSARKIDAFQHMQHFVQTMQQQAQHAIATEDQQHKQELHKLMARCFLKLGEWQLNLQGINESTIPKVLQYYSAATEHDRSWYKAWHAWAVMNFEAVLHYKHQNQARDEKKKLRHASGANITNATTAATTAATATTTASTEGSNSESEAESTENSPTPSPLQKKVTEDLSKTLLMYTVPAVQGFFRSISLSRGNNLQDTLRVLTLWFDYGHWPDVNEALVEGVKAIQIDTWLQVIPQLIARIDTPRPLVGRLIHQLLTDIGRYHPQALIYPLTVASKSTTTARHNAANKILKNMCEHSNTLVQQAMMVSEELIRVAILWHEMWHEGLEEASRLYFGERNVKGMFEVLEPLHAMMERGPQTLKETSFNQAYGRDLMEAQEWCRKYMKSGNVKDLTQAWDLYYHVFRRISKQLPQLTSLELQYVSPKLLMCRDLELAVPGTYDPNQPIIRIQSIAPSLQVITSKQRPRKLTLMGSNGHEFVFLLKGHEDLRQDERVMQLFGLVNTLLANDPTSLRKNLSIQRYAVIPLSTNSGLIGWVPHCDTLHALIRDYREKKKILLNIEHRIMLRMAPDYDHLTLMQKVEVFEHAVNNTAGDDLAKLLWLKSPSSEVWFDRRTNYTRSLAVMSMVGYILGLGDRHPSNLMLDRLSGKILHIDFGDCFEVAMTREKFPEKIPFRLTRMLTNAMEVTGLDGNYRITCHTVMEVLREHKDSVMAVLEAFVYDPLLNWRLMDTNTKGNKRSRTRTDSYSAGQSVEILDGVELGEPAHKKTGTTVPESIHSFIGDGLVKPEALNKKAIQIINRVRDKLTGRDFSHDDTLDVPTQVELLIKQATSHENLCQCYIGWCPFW
T2 sequence (P42336 whole entry): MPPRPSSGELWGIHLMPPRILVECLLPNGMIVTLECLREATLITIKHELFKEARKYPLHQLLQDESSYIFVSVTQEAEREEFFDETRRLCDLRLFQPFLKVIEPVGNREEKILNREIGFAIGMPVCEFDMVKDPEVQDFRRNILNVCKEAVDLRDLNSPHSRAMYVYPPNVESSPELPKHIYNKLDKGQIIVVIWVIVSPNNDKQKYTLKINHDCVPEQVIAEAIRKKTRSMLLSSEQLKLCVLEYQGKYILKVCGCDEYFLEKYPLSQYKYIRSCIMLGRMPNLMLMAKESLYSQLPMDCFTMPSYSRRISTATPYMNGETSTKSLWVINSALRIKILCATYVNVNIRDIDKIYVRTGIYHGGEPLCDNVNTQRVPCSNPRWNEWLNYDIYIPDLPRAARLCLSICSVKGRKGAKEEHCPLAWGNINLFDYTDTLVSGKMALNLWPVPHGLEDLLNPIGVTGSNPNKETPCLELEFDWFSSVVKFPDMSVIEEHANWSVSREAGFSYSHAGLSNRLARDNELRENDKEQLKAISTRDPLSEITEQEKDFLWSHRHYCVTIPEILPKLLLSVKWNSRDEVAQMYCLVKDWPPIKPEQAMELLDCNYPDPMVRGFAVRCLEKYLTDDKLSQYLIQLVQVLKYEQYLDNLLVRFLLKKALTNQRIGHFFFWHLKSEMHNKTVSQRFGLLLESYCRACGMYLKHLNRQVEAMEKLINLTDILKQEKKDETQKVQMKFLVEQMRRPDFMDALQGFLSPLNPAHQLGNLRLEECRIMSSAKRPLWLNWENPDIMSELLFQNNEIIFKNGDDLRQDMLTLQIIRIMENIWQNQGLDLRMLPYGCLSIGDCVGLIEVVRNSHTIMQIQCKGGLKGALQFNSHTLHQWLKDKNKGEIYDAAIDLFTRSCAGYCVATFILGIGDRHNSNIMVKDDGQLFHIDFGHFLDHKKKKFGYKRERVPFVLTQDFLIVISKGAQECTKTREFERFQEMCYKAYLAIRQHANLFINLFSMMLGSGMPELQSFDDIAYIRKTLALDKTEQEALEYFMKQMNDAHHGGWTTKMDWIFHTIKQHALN
T2 sequence (P27986 whole entry partner): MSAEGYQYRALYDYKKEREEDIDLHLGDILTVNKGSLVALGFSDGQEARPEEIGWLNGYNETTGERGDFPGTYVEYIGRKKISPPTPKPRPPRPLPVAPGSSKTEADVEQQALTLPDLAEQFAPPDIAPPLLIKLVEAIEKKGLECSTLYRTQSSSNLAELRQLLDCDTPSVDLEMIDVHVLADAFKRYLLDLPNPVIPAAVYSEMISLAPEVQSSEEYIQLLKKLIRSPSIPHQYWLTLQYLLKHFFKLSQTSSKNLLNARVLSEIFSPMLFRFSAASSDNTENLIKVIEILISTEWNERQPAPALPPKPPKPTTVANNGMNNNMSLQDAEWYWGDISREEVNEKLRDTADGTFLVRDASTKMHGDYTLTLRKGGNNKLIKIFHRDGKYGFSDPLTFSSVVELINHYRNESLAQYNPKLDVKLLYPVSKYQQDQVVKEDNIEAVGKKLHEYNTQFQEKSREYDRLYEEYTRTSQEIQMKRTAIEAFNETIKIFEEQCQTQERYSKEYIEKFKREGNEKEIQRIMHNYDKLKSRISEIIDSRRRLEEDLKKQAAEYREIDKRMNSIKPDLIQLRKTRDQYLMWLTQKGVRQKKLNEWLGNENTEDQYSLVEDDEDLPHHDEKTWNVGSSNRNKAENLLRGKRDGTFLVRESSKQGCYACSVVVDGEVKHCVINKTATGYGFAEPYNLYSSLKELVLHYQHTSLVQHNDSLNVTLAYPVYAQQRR

CN(C)C(=O)[C@H]1CC[C@H](Oc2nc(-c3cnc(N)s3)nc(N3CCO[C@H]4CCC[C@@H]43)n2)CC1 [Compound 10145, (1S,4r)-4-(4-(2-aminothiazol-5-yl)-6-((4aS,7aS)-hexahydrocyclopenta[b][1,4]oxazin-4(4aH)-yl)-1,3,5-triazin-2-yloxy)-N,N-dimethylcyclohexanecarboxamide]
IC50 (Recombinant mTOR (FRAP1)): > 1 µM | inhibition at 1 µM [1]: < 50%

CN(C)C(=O)c1ccc(Oc2nc(-c3cnc(N)s3)nc(N3CCO[C@H]4CCC[C@@H]43)n2)c(F)c1 [Compound 10146, 4-(4-(2-aminothiazol-5-yl)-6-((4aS,7aS)-hexahydrocyclopenta[b][1,4]oxazin-4(4aH)-yl)-1,3,5-triazin-2-yloxy)-3-fluoro-N,N-dimethylbenzamide]
IC50 (Recombinant mTOR (FRAP1)): < 1 µM | IC50 [1]: < 1 µM

C[C@H]1COCCN1c1nc(OC2CCC(C(=O)N(C)C)CC2)nc(-c2cccc(CO)c2)n1 (stereo partly drawn) [Compound 10147, (1R,4s)-4-(4-(3-(hydroxymethyl)phenyl)-6-((S)-3-methylmorpholino)-1,3,5-triazin-2-yloxy)-N,N-dimethylcyclohexanecarboxamide]
IC50 (Recombinant mTOR (FRAP1)): > 1 µM | inhibition at 1 µM [1]: > 50%

CN(C)C(=O)[C@H]1CC[C@H](Oc2nc(-c3ccc(N)nc3)nc(N3CCO[C@@H]4CCC[C@H]43)n2)CC1 [Compound 10148, (1R,4r)-4-(4-(6-aminopyridin-3-yl)-6-((4aR,7aR)-hexahydrocyclopenta[b][1,4]oxazin-4(4aH)-yl)-1,3,5-triazin-2-yloxy)-N,N-dimethylcyclohexanecarboxamide]
IC50 (Recombinant mTOR (FRAP1)): < 1 µM | inhibition at 1 µM [1]: < 50%

CN(C)C(=O)C1CCC(Oc2nc(-c3ccc4[nH]ccc4c3)nc(N3CCO[C@@H]4CCC[C@H]43)n2)CC1 (stereo partly drawn) [Compound 10150, (1S,4s)-4-(4-((4aR,7aR)-hexahydrocyclopenta[b][1,4]oxazin-4(4aH)-yl)-6-(1H-indol-5-yl)-1,3,5-triazin-2-yloxy)-N,N-dimethylcyclohexanecarboxamide]
IC50 (Recombinant mTOR (FRAP1)): > 10 µM | inhibition at 1 µM [1]: < 50%

C[C@H]1CN(c2nc(Oc3ccc(C(=O)N(C)C)cc3F)nc(-c3cnc(N)s3)n2)[C@@H](C)CO1 [Compound 10153, 4-(4-(2-aminothiazol-5-yl)-6-((2S,5S)-2,5-dimethylmorpholino)-1,3,5-triazin-2-yloxy)-3-fluoro-N,N-dimethylbenzamide]
IC50 (Recombinant mTOR (FRAP1)): < 1 µM | inhibition at 1 µM [1]: < 50% | IC50 [1]: < 1 µM

CN(C)C(=O)c1ccc(Oc2nc(-c3cnc(N)s3)nc(N3CC4CCC(C3)O4)n2)c(F)c1 [Compound 10154, 4-(4-(8-oxa-3-aza-bicyclo[3.2.1]octan-3-yl)-6-(2-aminothiazol-5-yl)-1,3,5-triazin-2-yloxy)-3-fluoro-N,N-dimethylbenzamide]
IC50 (Recombinant mTOR (FRAP1)): < 1 µM | inhibition at 1 µM [1]: < 50% | IC50 [1]: > 1 µM

C[C@@H]1COCCN1c1nc(Oc2ccc(C(=O)N(C)C)cc2F)nc(-c2cnc(N)s2)n1 [Compound 10156, 4-(4-(2-aminothiazol-5-yl)-6-((R)-3-methylmorpholino)-1,3,5-triazin-2-yloxy)-3-fluoro-N,N-dimethylbenzamide]
IC50 (Recombinant mTOR (FRAP1)): < 1 µM | inhibition at 1 µM [1]: < 50% | IC50 [1]: 3 µM

C[C@H]1COCCN1c1nc(Oc2ccc(C(=O)N(C)C)cc2)nc(-c2cnc3[nH]ccc3c2)n1 [Compound 10157, 4-(4-((S)-3-methylmorpholino)-6-(1H-pyrrolo[2,3-b]pyridin-5-yl)-1,3,5-triazin-2-yloxy)-N,N-dimethylbenzamide]
IC50 (Recombinant mTOR (FRAP1)): < 1 µM | IC50 [1]: < 1 µM

CN(C)C(=O)c1ccc(Oc2nc(-c3cnc4[nH]ccc4c3)nc(N3CCOCC3)n2)c(F)c1 [Compound 10158, 4-(4-morpholino-6-(1H-pyrrolo[2,3-b]pyridin-5-yl)-1,3,5-triazin-2-yloxy)-3-fluoro-N,N-dimethylbenzamide]
IC50 (Recombinant mTOR (FRAP1)): < 1 µM | IC50 [1]: < 1 µM

CC1OCCN(c2nc(Oc3ccc(C(=O)N(C)C)cc3F)nc(-c3cnc(N)s3)n2)C1C (stereo not drawn) [Compound 10159, 4-(4-(2-aminothiazol-5-yl)-6-(2,3-dimethylmorpholino)-1,3,5-triazin-2-yloxy)-3-fluoro-N,N-dimethylbenzamide]
IC50 (Recombinant mTOR (FRAP1)): < 1 µM | IC50 [1]: < 1 µM

C[C@@H]1CO[C@@H](C)CN1c1nc(Oc2ccc(C(=O)N(C)C)cc2F)nc(-c2ccc3[nH]ncc3c2)n1 [Compound 10161, 4-(4-(1H-indazol-5-yl)-6-((2S,5R)-2,5-dimethylmorpholino)-1,3,5-triazin-2-yloxy)-3-fluoro-N,N-dimethylbenzamide]
IC50 (Recombinant mTOR (FRAP1)): < 1 µM | IC50 [1]: > 10 µM

C[C@@H]1CN(c2nc(Oc3ccc(C(=O)N(C)C)cc3F)nc(-c3ccc4[nH]ncc4c3)n2)[C@H](C)CO1 [Compound 10162, 4-(4-(1H-indazol-5-yl)-6-((2R,5R)-2,5-dimethylmorpholino)-1,3,5-triazin-2-yloxy)-3-fluoro-N,N-dimethylbenzamide]
IC50 (Recombinant mTOR (FRAP1)): > 1 µM | IC50 [1]: > 10 µM

CN(C)C(=O)c1ccc(Oc2nc(-c3cccc4[nH]ncc34)nc(N3[C@@H]4CC[C@H]3COC4)n2)cc1 [Compound 10174, 4-((4-((1R,5S)-3-oxa-8-azabicyclo[3.2.1]octan-8-yl)-6-(1H-indazol-4-yl)-1,3,5-triazin-2-yl)oxy)-N,N-dimethylbenzamide]
inhibition at 1 µM (Recombinant mTOR (FRAP1)): < 50% | IC50 [1]: > 1 µM

Nc1ccc(-c2nc(CO)nc(N3CCOCC3)n2)cn1 [Compound 10176, (4-(6-aminopyridin-3-yl)-6-morpholino-1,3,5-triazin-2-yl)methanol]
inhibition at 1 µM (Recombinant mTOR (FRAP1)): < 50% | IC50 [1]: < 1 µM

CN(C)C(=O)c1ccc(Oc2nc(-c3ccc(N)nc3)nc(N3CCCOCC3)n2)cc1 [Compound 10178, 4-((4-(6-aminopyridin-3-yl)-6-(1,4-oxazepan-4-yl)-1,3,5-triazin-2-yl)oxy)-N,N-dimethylbenzamide]
inhibition at 1 µM (Recombinant mTOR (FRAP1)): < 50% | IC50 [1]: < 1 µM

CN(C)C(=O)Cc1ccc(Oc2nc(-c3ccc(N)nc3)nc(N3CCOCC3)n2)cc1 [Compound 10180, 2-(4-((4-(6-aminopyridin-3-yl)-6-morpholino-1,3,5-triazin-2-yl)oxy)phenyl)-N,N-dimethylacetamide]
inhibition at 1 µM (Recombinant mTOR (FRAP1)): > 50% | IC50 (Recombinant mTOR (FRAP1)): < 1 µM | IC50 [1]: < 1 µM

Cc1cc(Oc2nc(-c3ccc(N)nc3)nc(N3CCOCC3)n2)ccc1C(=O)N(C)C [Compound 10181, 4-((4-(6-aminopyridin-3-yl)-6-morpholino-1,3,5-triazin-2-yl)oxy)-N,N,2-trimethylbenzamide]
inhibition at 1 µM (Recombinant mTOR (FRAP1)): > 50% | IC50 (Recombinant mTOR (FRAP1)): < 1 µM | IC50 [1]: < 1 µM

Nc1ccc(-c2nc(Oc3ccc4c(c3)CCC(=O)N4)nc(N3CCOCC3)n2)cn1 [Compound 10182, 6-((4-(6-aminopyridin-3-yl)-6-morpholino-1,3,5-triazin-2-yl)oxy)-3,4-dihydroquinolin-2(1H)-one]
inhibition at 1 µM (Recombinant mTOR (FRAP1)): > 50% | IC50 (Recombinant mTOR (FRAP1)): > 1 µM | IC50 [1]: < 1 µM

CS(=O)(=O)N1CCC(COc2nc(-c3ccc(N)nc3)nc(N3CCOCC3)n2)CC1 [Compound 10185, 5-(4-((1-(methylsulfonyl)piperidin-4-yl)methoxy)-6-morpholino-1,3,5-triazin-2-yl)pyridin-2-amine]
inhibition at 1 µM (Recombinant mTOR (FRAP1)): < 50% | IC50 [1]: < 1 µM

CN(C)C(=O)NC1CCN(c2nc(-c3ccc(N)nc3)nc(N3CCOCC3)n2)CC1 [Compound 10188, 3-(1-(4-(6-aminopyridin-3-yl)-6-morpholino-1,3,5-triazin-2-yl)piperidin-4-yl)-1,1-dimethylurea]
inhibition at 1 µM (Recombinant mTOR (FRAP1)): < 50% | IC50 [1]: > 1 µM

CN(C)C(=O)Cc1ccc(Oc2nc(-c3cnc(N)nc3)nc(N3CCOCC3)n2)cc1 [Compound 10189, 2-(4-((4-(2-aminopyrimidin-5-yl)-6-morpholino-1,3,5-triazin-2-yl)oxy)phenyl)-N,N-dimethylacetamide]
inhibition at 1 µM (Recombinant mTOR (FRAP1)): < 50% | IC50 [1]: < 1 µM

CN(C)C(=O)c1ccc(Oc2nc(Nc3nccs3)nc(N3CCOCC3)n2)cc1 [Compound 10191, N,N-dimethyl-4-((4-morpholino-6-(thiazol-2-ylamino)-1,3,5-triazin-2-yl)oxy)benzamide]
inhibition at 1 µM (Recombinant mTOR (FRAP1)): < 50% | IC50 [1]: > 1 µM

CN(C)C(=O)c1ccc(Oc2nc(-c3cnc(N)s3)nc(N3CCCOCC3)n2)cc1 [Compound 10192, 4-((4-(2-aminothiazol-5-yl)-6-(1,4-oxazepan-4-yl)-1,3,5-triazin-2-yl)oxy)-N,N-dimethylbenzamide]
inhibition at 1 µM (Recombinant mTOR (FRAP1)): < 50% | IC50 (Recombinant mTOR (FRAP1)): > 1 µM | IC50 [1]: > 1 µM

CNC(=O)c1ccc(Oc2nc(-c3cnc(N)s3)nc(N3CCOCC3)n2)cc1 [Compound 10193, 4-((4-(2-aminothiazol-5-yl)-6-morpholino-1,3,5-triazin-2-yl)oxy)-N-methylbenzamide]
inhibition at 1 µM (Recombinant mTOR (FRAP1)): < 50% | IC50 [1]: < 1 µM

CS(=O)(=O)N1CCC(COc2nc(-c3cnc(N)s3)nc(N3CCOCC3)n2)CC1 [Compound 10194, 5-(4-((1-(methylsulfonyl)piperidin-4-yl)methoxy)-6-morpholino-1,3,5-triazin-2-yl)thiazol-2-amine]
inhibition at 1 µM (Recombinant mTOR (FRAP1)): < 50% | IC50 [1]: < 1 µM

CN(C)C(=O)c1cccc(Oc2nc(-c3cnc(N)s3)nc(N3CCOCC3)n2)c1 [Compound 10195, 3-((4-(2-aminothiazol-5-yl)-6-morpholino-1,3,5-triazin-2-yl)oxy)-N,N-dimethylbenzamide]
inhibition at 1 µM (Recombinant mTOR (FRAP1)): < 50% | IC50 [1]: < 1 µM

CN(C)C(=O)c1ccc(Nc2nc(-c3cnc(N)s3)nc(N3CCOCC3)n2)cc1 [Compound 10196, 4-((4-(2-aminothiazol-5-yl)-6-morpholino-1,3,5-triazin-2-yl)amino)-N,N-dimethylbenzamide]
inhibition at 1 µM (Recombinant mTOR (FRAP1)): < 50% | IC50 [1]: < 1 µM

From patent US9630958B2, “Triazine compounds” (Sphaera Pharma Pte. Ltd., priority 2012, dated 2017)
